Source: patent US20050222135A1, “Active substance combination” (priority 2004, published 2005)

System: male Swiss albino mice
Settings: 30 minute period after 2 mg/kg naloxone i.v.; Morphine 5 mg/kg/day s.c. over 4 days, Cizolirtine (as citrate) 40 mg/kg/day i.p.
Method: Pharmacodyn. 1971, 190, pages 213-218 in male Swiss albino mice (weight 20-25 g, Harlan Iberica, S. Feliu de Codinas, Barcelona, Spain).
Withdrawal symptoms are then induced by the intravenous administration of a suitable opioid antagonist in a dose known to those skilled in the art, for example, 2 mg/kg naloxone in case of morphine, 30 minutes after the administration of the final dose of the opioid is completed.
After the administration of 2 mg/kg naloxone 30 minutes after the administration of the final dose of the active substance combination has been completed, the mice are closely watched for withdrawal symptoms, namely jumps and shakes (of the wet dog shake type), which are then counted and registered.

Question: `CN1CC[C@]23c4c5ccc(O)c4O[C@H]2[C@@H](O)C=C[C@H]3[C@H]1C5` [Morphine] was tested. Which Number of jumps did it give?
Answer: 6.6
